The Deep4Chem optical property database
Blank lines part the entries; values can stand above or below the compound they belong to.

Assay: solvent given as SMILES

- emission maximum (in CO): 379 nm
SMILES: COc1cccc(-c2nc(-c3ccccc3)c(-c3ccccc3)[nH]2)c1

- emission maximum (in ClCCl): 363 nm
SMILES: c1ccc(-n2c(-c3ccc([Si](c4ccc(-c5nc6ccccc6n5-c5ccccc5)cc4)(c4ccc(-c5nc6ccccc6n5-c5ccccc5)cc4)c4ccc(-c5nc6ccccc6n5-c5ccccc5)cc4)cc3)nc3ccccc32)cc1

- emission maximum (in CCO): 644 nm
- emission maximum (in O): 652 nm
SMILES: CC/[NH+]=c1\cc2oc3cc(NCCC(=O)O)c4ccccc4c3nc-2cc1C

- emission maximum (in ClCCl): 420 nm
SMILES: COc1ccc(/C=C/c2ncc(-c3ccccc3)o2)cc1OC

SMILES: CC(C)c1cc(C(C)C)c(B2c3cc(N4c5ccccc5Oc5ccccc54)ccc3N(c3ccccc3)c3ccc(N4c5ccccc5Oc5ccccc54)cc32)c(C(C)C)c1
- emission maximum (in C1CCOC1): 554.08 nm
- emission maximum (in CCOC(C)=O): 546.26 nm
- emission maximum (in Cc1ccccc1): 510.2 nm
- emission maximum (in ClCCl): 546.26 nm
- emission maximum (in c1cc(-c2cccc(-n3c4ccccc4c4ccccc43)c2)cc(-n2c3ccccc3c3ccccc32)c1): 512 nm

SMILES: Cc1cc(-c2nc(-c3ccccc3)nc(-c3ccccc3)n2)ccc1-n1c2ccccc2c2cc3c(cc21)C1c2ccccc2C3c2ccccc21
- emission maximum (in Cc1ccccc1): 431 nm
- emission maximum (in O=P(c1ccccc1)(c1ccccc1)c1ccccc1Oc1ccccc1P(=O)(c1ccccc1)c1ccccc1): 451 nm

- emission maximum (in ClC(Cl)Cl): 489 nm
SMILES: FC(F)(F)c1ccc2oc3nc4oc5ccc(N6c7ccccc7Oc7ccccc76)cc5c4cc3c2c1

SMILES: N#Cc1cc2ccc(cc2)c2cccc3cccc(c4ccc(cc4)cc(C#N)c4ccc(cc4)c4cccc5cccc(c6ccc1cc6)c54)c32
- emission maximum (in Cc1ccccc1): 496 nm

SMILES: COc1ccc(-c2cc(-c3ccc(OC)cc3)c3c(N)nc(N4CCCC4)c(C#N)c3n2)cc1
- emission maximum (in CC#N): 516 nm
- emission maximum (in CC(C)=O): 513 nm
- emission maximum (in CC(C)O): 507 nm
- emission maximum (in CO): 515 nm
- emission maximum (in ClC(Cl)Cl): 500 nm
- emission maximum (in ClCCl): 506 nm
- emission maximum (in c1ccccc1): 502 nm

- emission maximum (in ClCCl): 432 nm
SMILES: c1ccc(-n2c(-c3ccc(N(c4ccc(-c5ccc(N(c6ccc(-c7nc8c9ccccc9c9ccccc9c8n7-c7ccccc7)cc6)c6ccc(-c7nc8c9ccccc9c9ccccc9c8n7-c7ccccc7)cc6)cc5)cc4)c4ccc(-c5nc6c7ccccc7c7ccccc7c6n5-c5ccccc5)cc4)cc3)nc3c4ccccc4c4ccccc4c32)cc1

- emission maximum (in ClCCl): 387 nm
SMILES: COc1ccc2cc(C#N)c(=N)oc2c1

- emission maximum (in ClCCl): 409 nm
SMILES: COc1ccc(-c2cc3c(ccc4sc5ccc6sccc6c5c43)s2)cc1

- emission maximum (in CC#N): 487 nm
- emission maximum (in ClCCl): 453 nm
SMILES: COC(=O)c1cccc2c1C#Cc1c(N)cccc1OCCCO2

- emission maximum (in C1COCCO1): 538.57 nm
SMILES: CCC12C(=C3C(=C4c5ccc(-c6ccc(CO)cc6)cc5S(=O)(=O)C41CC)C(F)(F)C(F)(F)C3(F)F)c1ccc(-c3ccc(CO)cc3)cc1S2(=O)=O (configuration not stated)

- emission maximum (in ClCCl): 427 nm
- emission maximum (in c1cc(-n2c3ccccc3c3ccccc32)cc(-n2c3ccccc3c3ccccc32)c1): 412 nm
SMILES: O=S1(=O)c2ccccc2C2(c3cc(-c4ccc(-n5c6ccccc6c6ccccc65)cc4)ccc3-c3ccc(-c4ccc(-n5c6ccccc6c6ccccc65)cc4)cc32)c2ccccc21

- emission maximum (in ClCCl): 411 nm
SMILES: CCCCCCn1c2ccsc2c2sc3c(sc4c5sccc5n(CCCCCC)c43)c21

SMILES: COc1ccc(C2=C3C=c4c(oc5cc6c(cc45)[C@H]4CC[C@]5(C)C(=O)CC[C@H]5[C@@H]4CC6)=[N+]3[B-](F)(F)n3c2cc2c4cc5c(cc4oc23)CC[C@@H]2[C@@H]5CC[C@]3(C)C(=O)CC[C@@H]23)cc1
- emission maximum (in CCOC(C)=O): 615 nm
- emission maximum (in CCOCC): 611.5 nm
- emission maximum (in CO): 613.5 nm

- emission maximum (in CC#N): 460 nm
SMILES: Fc1nc(F)c(F)c(C#Cc2cc3c(cc2C#Cc2c(F)c(F)nc(F)c2F)OC2(CCCCC2)O3)c1F

- emission maximum (in CO): 566 nm
SMILES: c1ccc(N(c2ccccc2)c2ccc(-c3cnc(-c4ccncc4)s3)cc2)cc1

- emission maximum (in ClCCl): 557 nm
SMILES: COC(=O)c1ccc(C2=C(/C=C/c3ccc(OC)cc3)O[B-](F)(F)[O+]=C2/C=C/c2ccc(OC)cc2)cc1

- emission maximum (in ClC(Cl)Cl): 456 nm
SMILES: O=c1oc2ccccc2cc1-c1cn2ccccc2n1

- emission maximum (in CC#N): 417.83 nm
- emission maximum (in CCO): 411.74 nm
- emission maximum (in ClCCl): 536 nm
SMILES: CN(C)c1cc(-c2ccc(C#Cc3ccncc3)cc2)cc2ccccc12

- emission maximum (in C1CCCCC1): 570 nm
- emission maximum (in CC#N): 628 nm
SMILES: COc1ccc2c(c1)C(=O)c1cc(OC)cc(OC)c1-2

SMILES: CN(C)c1ccc(C#Cc2ccc3ccc4ccc(C#Cc5ccc(N(C)C)cc5)c5ccc2c3c45)cc1
- emission maximum (in C1COCCO1): 491.8 nm
- emission maximum (in CC(C)=O): 570.9 nm
- emission maximum (in CCCCCC): 459 nm
- emission maximum (in CCCCCCO): 531.8 nm
- emission maximum (in CCO): 543 nm
- emission maximum (in CCOC(C)=O): 529.9 nm
- emission maximum (in CO): 555.1 nm
- emission maximum (in Cc1ccccc1): 482 nm
- emission maximum (in ClCCl): 532.7 nm

SMILES: C(#Cc1nc2ccccc2s1)c1ccc(N(c2ccc(C#Cc3nc4ccccc4s3)cc2)c2ccc(C#Cc3nc4ccccc4s3)cc2)cc1
- emission maximum (in Cc1ccccc1): 434 nm

- emission maximum (in ClCCl): 554 nm
- emission maximum (in c1ccccc1): 504 nm
SMILES: CCCCN(CCCC)c1ccc2c#cc3cc4c#cc5ccc(C(F)(F)F)cc5c#cc#cc5cc(C(F)(F)F)ccc5c#cc4cc3c#cc3ccc(N(CCCC)CCCC)cc3c#cc#cc2c1

- emission maximum (in CO): 817 nm
SMILES: CC1(C)C(/C=C/C=C/C=C/C=C2/N(CCCCS(=O)(=O)[O-])c3ccc4ccccc4c3C2(C)C)=[N+](CCCCS(=O)(=O)[O-])c2ccc3ccccc3c21

SMILES: CC(C)CCCCN1CCc2c1ccc1c3c(ccc21)CCCC3=O
- emission maximum (in C1CCCCC1): 507 nm
- emission maximum (in CC#N): 625 nm
- emission maximum (in CC(C)O): 637 nm
- emission maximum (in CCC(C)=O): 612 nm
- emission maximum (in CCO): 539 nm
- emission maximum (in CCOC(C)=O): 586 nm
- emission maximum (in CS(C)=O): 643 nm
- emission maximum (in Cc1ccccc1): 554 nm
- emission maximum (in ClCCl): 595 nm
- emission maximum (in Clc1ccccc1): 573 nm

- emission maximum (in CCO): 592 nm
- emission maximum (in ClCCl): 590 nm
SMILES: Ic1ccc(-c2c3ccc(=[N+]4CCCCC4)cc-3oc3cc(N4CCCCC4)ccc23)cc1

SMILES: COCCC1=Cc2nc1ccc1[nH]c(cc1CCOC)c1nc(c(OC(C)=O)cc3[nH]c2cc3CCOC)C(CCOC)=C1
- emission maximum (in Cc1ccccc1): 652 nm

SMILES: COc1ccc2c(c1)sc1[n+]2[B-](F)(F)OC(c2ccc(N(C)C)cc2)=N1
- emission maximum (in C1CCOC1): 466 nm
- emission maximum (in CC#N): 481 nm
- emission maximum (in CC(C)=O): 477 nm
- emission maximum (in Cc1ccccc1): 454 nm
- emission maximum (in ClCCl): 467 nm

SMILES: O=c1cccc2n1C[C@@H]1CNC[C@H]2C1
- emission maximum (in CC#N): 380 nm

- emission maximum (in CC#N): 661 nm
SMILES: F[B-]1(F)n2c(c(Sc3ccccc3)c3c2-c2ccccc2CC3)C=C2C(Sc3ccccc3)=C3CCc4ccccc4C3=[N+]21

- emission maximum (in CC#N): 521 nm
- emission maximum (in ClCCl): 678 nm
SMILES: CN(C)c1ccc(-c2cc3c(s2)c(C(=O)c2ccccc2)cc(=O)n3Cc2ccccc2)cc1

- emission maximum (in ClCCl): 359 nm
SMILES: C[Si](C)(c1ccc(-c2nc3ccccc3n2-c2ccccc2)cc1)c1ccc(-c2nc3ccccc3n2-c2ccccc2)cc1

- emission maximum (in ClCCl): 501 nm
SMILES: C[Si]1(C)O[Si](C)(C)c2cc3nc4ccccc4c(-c4ccccc4)c3cc2[Si](C)(C)O1

SMILES: COc1ccc(C2=C3C(C)=CC(C=Cc4ccc(C(=O)OC5C[C@H]6CCC5(C)C6(C)C)cc4)=[N+]3[B-](F)(F)n3c(C)cc(C)c32)cc1 (some centres not stated)
- emission maximum (in Cc1ccccc1): 627 nm

- emission maximum (in ClC(Cl)Cl): 523 nm
SMILES: Cc1cccc(C)c1-c1cc2c(C)c3c4cc5nc6cc7c(cc6nc5cc4c3c(C)c2cc1-c1c(C)cccc1C)c1c(C)c2cc(-c3c(C)cccc3C)c(-c3c(C)cccc3C)cc2c(C)c71

- emission maximum (in ClCCl): 563 nm
SMILES: CCCCN(CCCC)c1ccc(C#Cc2cc(C#Cc3ccc([N+](=O)[O-])cc3)c(C#Cc3ccc([N+](=O)[O-])cc3)cc2C#Cc2ccc(N(CCCC)CCCC)cc2)cc1
